According to patent US5434154A, “Antimigraine 4-pyrimidinyl and pyridinyl derivatives of indol-3yl-alkylpiperazines” (Bristol-Myers Squibb Company, priority 1994, dated 1995):
Structures can show the parent of a compound that is named as a salt.

Legend:
5-HT1D = biological target: T1, 5-HT1D (Bos taurus, UniProt F1MGM3); assay: 5-HT1D binding (displacement of tritiated serotonin); conditions: in vitro, Table 2
T1 construct: methodology such as that described by Heuring and Peroutka, J. Neurosci., 7(3), 1987, 894-903; with only minor modifications; from tissue
T1 sequence (F1MGM3 1-403): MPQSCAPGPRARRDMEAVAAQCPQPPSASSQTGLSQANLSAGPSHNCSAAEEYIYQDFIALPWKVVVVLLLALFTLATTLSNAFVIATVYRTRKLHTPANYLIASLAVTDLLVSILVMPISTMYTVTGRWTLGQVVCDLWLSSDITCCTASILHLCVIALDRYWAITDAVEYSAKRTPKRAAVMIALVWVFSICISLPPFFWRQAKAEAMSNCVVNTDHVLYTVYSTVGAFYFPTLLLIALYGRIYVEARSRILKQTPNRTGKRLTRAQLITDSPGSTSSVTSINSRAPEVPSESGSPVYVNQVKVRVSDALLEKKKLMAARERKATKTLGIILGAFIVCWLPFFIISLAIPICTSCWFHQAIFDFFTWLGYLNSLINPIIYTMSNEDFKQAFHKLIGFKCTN
Procedure: Determination of 5-HT1D binding properties was accomplished employing methodology such as that described by Heuring and Peroutka, J. Neurosci., 7(3), 1987, 894-903; with only minor modifications. In vitro IC50 (nM) test values were determined for the compounds of this invention employing tritiated serotonin.

migraine = conditions: cited from earlier work
migraine sufferers = conditions: cited from earlier work

Compound | IC50 (5-HT1D) [nM] | further results
COc1cncnc1N1CCN(CCCc2c[nH]c3ccc(F)cc23)CC1 [Example 64] | 1.5 | 
CN1C[C@H](C(=O)N[C@]2(C)O[C@@]3(O)[C@@H]4CCCN4C(=O)[C@H](Cc4ccccc4)N3C2=O)C=C2c3cccc4[nH]cc(c34)C[C@H]21 [ergotamine] |  | dependence (migraine; extended use): cause dependence with extended use
NCCc1c[nH]c2ccc(O)cc12 [serotonin] |  | effect in treating migraine attacks (migraine sufferers; in vivo): effective in treating migraine attacks; side-effects in migraine use (migraine sufferers; in vivo): restlessness, nausea, faintness, hyperpnea, facial flushing and parasthesias
COc1cncnc1N1CCN(CCCc2c[nH]c3ccc(N(C)S(C)(=O)=O)cc23)CC1C (centres unmarked) [Example 70] | 11 | 
NCCc1c[nH]c2ccc(O)cc12 [serotonin creatinine sulfate] |  | alleviation of reserpine-induced headache (migraine sufferers; slow I.V. injection): This induced headache can be alleviated
COC(=O)[C@H]1[C@H]2C[C@@H]3c4[nH]c5cc(OC)ccc5c4CCN3C[C@H]2C[C@@H](OC(=O)c2cc(OC)c(OC)c(OC)c2)[C@@H]1OC [reserpine] |  | induction of headache in migraine sufferers (migraine sufferers; in vivo): induces a typical migraine-type headache in migraine sufferers; plasma serotonin (migraine sufferers; intramuscular injection): lowers plasma serotonin
COc1cncnc1N1CCN(CCCc2c[nH]c3ccc(CS(N)(=O)=O)cc23)CC1 [Example 81] | 7.9 | 
CC[C@@H](CO)NC(=O)[C@@H]1C=C2c3cccc4c3c(cn4C)C[C@H]2N(C)C1 [methysergide] |  | side-effects (migraine; long term usage): severe use-limiting side-effects with long term usage
COc1cncnc1N1CCN(CCCc2c[nH]c3ccc(CC(=O)NCc4ccccc4)cc23)CC1 [Example 84] | 4.6 | 
CNS(=O)(=O)Cc1ccc2[nH]cc(CCCN3CCN(c4ccncc4OC)CC3)c2c1 [Example 61, 4-(5-Methoxy-4-pyridinyl)-1-[3-[5-[[(methylamino)sulfonyl]methyl]-1H-indol-3-yl]propyl]piperazine hydrochloride] | 1 | 
COc1cncnc1N1CCN(CCCc2c[nH]c3ccc(NS(C)(=O)=O)cc23)CC1C (centres unmarked) [Example 68] | 9.6 | 
COc1cnccc1N1CCN(CCCc2c[nH]c3ccccc23)CC1 [Example 62, 1-[3-(1H-indol-3-yl)propyl]-4-(3-methoxy-4-pyridinyl)piperazine dihydrochloride] | 10 | 
